From patent US12458702B2 (NATIONAL TAIWAN UNIVERSITY, priority 2022, dated 2025)
Entries after “also recorded” stand apart in the source; their conditions may differ. Where two headings read alike, the source gives them in different places.

Assays:
HCT-116 = assay: Cytotoxicity by SRB assay in HCT-116 cells; assay type: cell-based, human
Protocol: (§1) The fraction of cell survival was calculated as follows. Survival fraction=(OD treated−blank)/(OD control−blank). […] Each experiment was repeated three times.

[1] = test system: CRC cell lines HCT-116 and HT-29; assay: Cytotoxicity against CRC cell lines, summary over both lines (SRB assay); assay type: cell-based, human; settings: for cytotoxicity against CRC cell lines, in words: HCT-116 and HT-29, with or without GSH; for IC50: read-out: IC50 in CRC cells
Protocol: as §1

HT-29 = assay: Cytotoxicity by SRB assay in HT-29 cells
Protocol: Cancer cell lines were obtained from ATCC unless otherwise noted. HT-29 and HCT-116 cells were cultured in Dulbecco's Modified Eagle Medium (DMEM, Thermo Fisher Scientific) with 10% fetal bovine serum (FBS, Thermo Fisher Scientific) and 1% antibiotic-antimycotic (Thermo Fisher Scientific).
Briefly, CRC cells were seeded at a density of 5×10^3 cells/well in 96-well microtiter plates (100 μL/well), separated into two groups with or without GSH. After incubation for 24 hours, the culture medium was replaced by fresh medium (100 μL). […] After incubation, 10% cold trichloroacetic acid was gently added to each well and incubated at 4° C. for 1 h. The medium was removed, carefully washed with water, and dried at room temperature. […] The optical density (O.D.) was measured at 510 nm with Multi-Mode Microplate Reader (SpectraMax Paradigm, Beckman Coulter, U.S.). The fraction of cell survival was calculated as follows. Survival fraction=(OD treated−blank)/(OD control−blank). […] Each experiment was repeated three times.

[2] = Human plasma stability (RP-HPLC); assay type: in vitro ADME; settings: 95% human plasma, 37° C.
Protocol: To access human plasma stability, synthesized conjugates were prepared in 95% human plasma. […] The mixture was centrifuged at 13,000 rpm for 5 min. […] For compounds 30 and 31, they were dissolved in DMA and added GSH (11.2 mM or 11.2 μM) solution which was prepared in sodium acetate buffer (10 mM, pH 5.0) in the ratio of 50/40 (v/v, drug in DMA/GSH solution) for final GSH of 5 mM or 5 μM in pH 7.0, respectively. After incubation for the indicated time, samples were centrifuged to collect the clear supernatant and stored at −30° C. until analysis. RP-HPLC injections were carried out at the specified conditions, and the area of peak was integrated for further calculation.

[3] = Stability and drug release in GSH (RP-HPLC); assay type: in vitro ADME
Protocol: […] After incubation for the indicated time, samples were centrifuged to collect the clear supernatant and stored at −30° C. until analysis. RP-HPLC injections were carried out at the specified conditions, and the area of peak was integrated for further calculation.

[4] = test system: orthotopic CRC mice model; assay: Orthotopic AOM/DSS-induced CRC mice model, tumor area; assay type: in vivo, BALB/c mice; settings: SN-38 series; i.v. once every two days for two weeks; 40 mg/kg vs irinotecan 40 mg/kg
Protocol: Azoxymethane (AOM)-induced murine CRC model was applied to model human CRC. BALB/c mice (6 weeks of age, male) were intraperitoneally (i.p.) injected once every two weeks with AOM (10 mg/kg body weight) or the PBS vehicle. Seven days after each AOM injection, 2% dextran sulfate sodium (DSS) was given in the drinking water for four days, followed by 3 days of regular water. This cycle was repeated three times. The mice were randomly divided into eight groups (n=5), on day 60 after the first AOM treatment. […] Tumor volumes and body weights were recorded at sacrifice. The tumors were counted under a dissecting microscope, and the area covered by tumors was measured by imaging software (AxioVision LE 4.8.2.0).

[5] = Body weight changes in the CRC mice model; assay type: in vivo, BALB/c mice; settings: during treatment in CRC mice model
Protocol: Azoxymethane (AOM)-induced murine CRC model was applied to model human CRC. BALB/c mice (6 weeks of age, male) were intraperitoneally (i.p.) injected once every two weeks with AOM (10 mg/kg body weight) or the PBS vehicle. Seven days after each AOM injection, 2% dextran sulfate sodium (DSS) was given in the drinking water for four days, followed by 3 days of regular water. This cycle was repeated three times. The mice were randomly divided into eight groups (n=5), on day 60 after the first AOM treatment. […] Irinotecan (20 mg/kg), compound 31 (20 mg/kg), and irinotecan+compound 17 (20 mg/kg of irinotecan and 14 mg/kg of compound 17) were injected i.p. q.o.d for two weeks. […] Tumor volumes and body weights were recorded at sacrifice. The tumors were counted under a dissecting microscope, and the area covered by tumors was measured by imaging software (AxioVision LE 4.8.2.0).

[6] = Homo sapiens, HCT-116, 48 h, w/o GSH, read-out: IC50 HCT-116 w/o GSH
[7] = Homo sapiens, HT-29, 48 h, read-out: IC50 HT-29 w/o GSH
[8] = Homo sapiens, HCT-116, read-out: IC50 HCT-116 5 mM GSH, 72 h, prepared in DMA, 5 mM GSH
[9] = Homo sapiens, HCT-116, 48 h, prepared in DMSO, read-out: IC50 HCT-116
[10] = Homo sapiens, HCT-116, 72 h, prepared in DMA, w/o GSH, read-out: IC50 HCT-116 w/o GSH
[11] = Homo sapiens, HT-29, 48 h, read-out: IC50 HT-29
[12] = Homo sapiens, HT-29, 48 h, read-out: IC50 HT-29 5 mM GSH
[13] = Homo sapiens, HCT-116, read-out: IC50 HCT-116 5 mM GSH, 48 h, 5 mM GSH
[14] = 72 h, prepared in DMA, w/o GSH, read-out: IC50 HCT-116 w/o GSH
[15] = read-out: IC50 HCT-116 5 mM GSH, 72 h, prepared in DMA, 5 mM GSH
[16] = read-out: IC50 HT-29 5 mM GSH, 48 h, prepared in DMA, 5 mM GSH
[17] = read-out: IC50 HT-29, 48 h, prepared in DMSO
[18] = read-out: IC50 HT-29 w/o GSH, 48 h, prepared in DMA, w/o GSH

Row | SMILES | IC50 (HCT-116; [6]) | cytotoxicity against CRC cell lines, in words [1] | IC50 (HT-29; [7]) | IC50 (HCT-116; [8]) | IC50 (HCT-116; [9]) | IC50 (HCT-116; [10]) | IC50 (HT-29; [11]) | IC50 (HT-29; [12]) | IC50 (HCT-116; [13]) | other results
1 | O=C(CCc1cn(CCOCCOCCOc2cc(O)c(C(=O)CCc3ccc(O)cc3)c(O[C@@H]3O[C@H](CO)[C@@H](O)C(O)[C@H]3O)c2)nn1)OCn1cc(F)c(=O)[nH]c1=O (stereo partly drawn) [Compound 8, (5-Fluoro-2,4-dioxo-3,4-dihydropyrimidin-1(2H)-yl)methyl 3-(1-(2-(2-(2-(3-hydroxy-4-(3-(4-hydroxyphenyl)propanoyl)-5-(((2S,3R,5S,6R)-3,4,5-trihydroxy-6-(hydroxymethyl)tetrahydro-2H-pyran-2-yl)oxy)phenoxy)ethoxy)ethoxy)ethyl)-1H-1,2,3-triazol-4-yl)propanoate] | > 100 µM | poorly cytotoxic | > 100 µM | – | – | – | – | – | – | –
2 | O=C(CCc1ccc(O)cc1)c1c(O)cc(O)cc1O [Phloretin (3), phloretin, reference compound] | – | – | > 100 µM | 77.6 ± 3.42 µM | > 100 µM | > 100 µM | > 100 µM | > 100 µM | – | –
3 | O=C(CCc1ccc(O)cc1)c1c(O)cc(O)cc1O[C@@H]1O[C@H](CO)[C@@H](O)[C@H](O)[C@H]1O [Phlorizin (2), phlorizin, reference compound] | – | – | > 100 µM | > 100 µM | > 100 µM | > 100 µM | > 100 µM | > 100 µM | – | –
4 | O=C(CCCCCN1C(=O)CC(SCCOCCOCCOc2cc(O)c(C(=O)CCc3ccc(O)cc3)c(O[C@@H]3O[C@H](CO)[C@@H](O)C(O)[C@H]3O)c2)C1=O)OCn1cc(F)c(=O)[nH]c1=O (stereo partly drawn) [Compound 4, (5-Fluoro-2,4-dioxo-3,4-dihydropyrimidin-1(2H)-yl)methyl 6-(3-((2-(2-(2-(3-hydroxy-4-(3-(4-hydroxyphenyl)propanoyl)-5-(((2S,3R,5S,6R)-3,4,5-trihydroxy-6-(hydroxymethyl)tetrahydro-2H-pyran-2-yl)oxy)phenoxy)ethoxy)ethoxy)ethyl)thio)-2,5-dioxopyrrolidin-1-yl)hexanoate] | 97.4 ± 20.3 µM | poorly cytotoxic | > 100 µM | – | – | – | – | 93.6 ± 9.4 µM | > 100 µM | –
5 | CCc1c2c(nc3ccc(O)cc13)-c1cc3c(c(=O)n1C2)COC(=O)[C@]3(O)CC [SN-38 (28), SN-38, reference compound] | – | – | – | – | – | – | – | – | – | IC50 (HCT-116; 48 h, prepared in DMSO, read-out: IC50 HCT-116): 0.0549 ± 0.00386 µM; IC50 (HCT-116; [14]): 0.00237 ± 4e-05 µM; IC50 (HCT-116; [15]): 0.00288 ± 8e-05 µM; IC50 ([1]; HCT-116 and HT-29, Tables 2 and 3): 0.002 to 0.43 µM; IC50 (HT-29; [16]): 0.0113 ± 0.00073 µM; IC50 (HT-29; [17]): 0.43 ± 1e-05 µM; IC50 (HT-29; [18]): 0.0134 ± 0.0004 µM
6 | CCc1c2c(nc3ccc(OC(=O)OCCSSCCOCCOCCOc4ccc(O)c(C(=O)CCc5ccc(O)cc5)c4O[C@@H]4O[C@H](CO)[C@@H](O)[C@H](O)[C@H]4O)cc13)-c1cc3c(c(=O)n1C2)COC(=O)[C@]3(O)CC [Compound 30, (S)-4,11-diethyl-4-hydroxy-3,14-dioxo-3,4,12,14-tetrahydro-1H-pyrano[3′,4′:6,7]indolizino[1,2-b]quinolin-9-yl(2-((2-(2-(2-(4-hydroxy-3-(3-(4-hydroxyphenyl)propanoyl)-2-(((2S,3R,4S,5S,6R)-3,4,5-trihydroxy-6-(hydroxymethyl)tetrahydro-2H)pyran-2-yl)oxy)phenoxy)ethoxy)ethoxy)ethyl)disulfanyl)ethyl) carbonate] | – | less or similar cytotoxicity | – | – | – | – | – | – | – | IC50 (HCT-116; [14]): 0.00244 ± 0.00017 µM; IC50 (HCT-116; [15]): 0.00257 ± 0.00013 µM; half-life in human plasma [2]: 20 min; release rate of SN-38 ([3]; 5 mM GSH): about 60%; IC50 (HT-29; [16]): 0.0301 ± 0.0026 µM; IC50 (HT-29; [18]): 0.0396 ± 0.00345 µM
7 | O=C(CCCCCN1C(=O)CC(SCCOCCOCCOc2cc(O)c(C(=O)CCc3ccc(O)cc3)c(O)c2)C1=O)OCn1cc(F)c(=O)[nH]c1=O (centres unmarked) [Compound 5, (5-Fluoro-2,4-dioxo-3,4-dihydropyrimidin-1(2H)-yl)methyl 6-(3-((2-(2-(2-(3,5-dihydroxy-4-(3-(4-hydroxyphenyl)propanoyl)phenoxy)ethoxy)ethoxy)ethyl)thio)-2,5-dioxopyrrolidin-1-yl)hexanoate] | 75 ± 13.7 µM | poorly cytotoxic | 43.7 ± 5 µM | – | – | – | – | 86.9 ± 2.9 µM | 82.8 ± 4.18 µM | half-life in human plasma [2]: 48 min; release of 5-FU, in words ([3]; 5 mM GSH, after 48 h): Little 5-FU was released
8 | O=C(CCc1ccc(O)cc1)c1c(O)cc(OCCOCCOCCS)cc1O [Compound 17, 1-(2,6-Dihydroxy-4-(2-(2-(2-mercaptoethoxy)ethoxy)ethoxy)phenyl)-3-(4-hydroxyphenyl)propan-1-one] | 15.5 ± 0.72 µM | – | 29.1 ± 6.14 µM | 15.9 ± 0.89 µM | 15.5 ± 0.72 µM | 15.5 ± 0.72 µM | 29.1 ± 6.14 µM | 24.2 ± 0.4 µM | 15.9 ± 0.89 µM | IC50 ([1]; Homo sapiens, HCT-116 and HT-29, over Tables 1 to 3): 15 to 30 µM
9 | O=C(CCCSSCCOCCOCCOc1cc(O)c(C(=O)CCc2ccc(O)cc2)c(O[C@@H]2O[C@H](CO)[C@@H](O)C(O)[C@H]2O)c1)OCn1cc(F)c(=O)[nH]c1=O (stereo partly drawn) [Compound 6, (5-fluoro-2,4-dioxo-3,4-dihydropyrimidin-1(2H)-yl)methyl 4-((2-(2-(2-(3-hydroxy-4-(3-(4-hydroxyphenyl)propanoyl)-5-(((2S,3R,5S,6R)-3,4,5-trihydroxy-6-(hydroxymethyl)tetrahydro-2H-pyran-2-yl)oxy)phenoxy)ethoxy)ethoxy)ethyl)disulfanyl)butanoate] | 54.9 µM | – | 59.8 ± 7.93 µM | – | – | – | – | 8 ± 0.52 µM | 23.8 µM | half-life at 2.5 mM ([3]; PBS containing GSH, pH 7.4, highly reductive environments, read-out: half-lives in highly reductive environments): < 300 min
10 | CCc1c2c(nc3ccc(OCc4ccc(NC(=O)[C@H](CCCNC(N)=O)NC(=O)[C@@H](NC(=O)CCCCN5C(=O)CC(SCCOCCOCCOc6cc(O)c(C(=O)CCc7ccc(O)cc7)c(O)c6)C5=O)C(C)C)cc4)cc13)-c1cc3c(c(=O)n1C2)COC(=O)[C@]3(O)CC (some centres unmarked) [Compound 38] | – | – | – | – | – | – | – | – | – | anti-tumor efficacy (tumor area), in words [4]: good therapeutic efficacy than irinotecan; also recorded: better anti-tumor efficacy than irinotecan; body weight change, in words [5]: did not decrease the body weight; also recorded: no significant change in the body weight; cytotoxicity in HT-29 cell line, in words (HT-29): less sensitive; IC50 (HT-29; [17]): > 100 µM
